The values that follow come from paper PMC8708382, “Heterocyclic Cathinones as Inhibitors of Kynurenine Aminotransferase II—Design, Synthesis, and Evaluation” (Pharmaceuticals, 2021).

Where a name gives a salt, the structure may show the parent alone. Read-outs that look alike come from different tables or passages of the source. Where only a bound is given, the exact number is not on record here.

Data set [1] has as its target T1, hKAT-II (Homo sapiens, UniProt Q8N5Z0).
T1 construct: hexahistidine tag (N); made in house; host or cells: E. coli BL21(DE3)-RIL
Description: Coupled fluorescence in vitro inhibition assay of hKAT-II. It is filed as biochemical. Conditions: 20 nM hKAT-II; for IC50: 30 min pre-incubation; for Inhibitory Activity [%I ± SEM] c = 1 µM: 30 min pre-incubation with enzyme, mean ± SEM. The protocol:
The inhibitory activity of amino ketones 11 and 12 was evaluated using a fluorimetric in vitro assay. The activity was determined as the percentage of inhibition (%I) at a concentration of 1 µmol/L and also as IC50 values (Table 1). The observed inhibitory activity confirmed the validity of the computational model and was suitable to conduct a synthesis-directed SAR study around the predicted heterocyclic α-amino ketone structure.
The nucleotide sequence encoding hKAT-II gene was constructed by Invitrogen, Thermo Fisher Scientific. The hKAT-II gene, optimized for heterologous expression in E. coli, was cloned into a pET15b vector using NdeI-XhoI. The hKAT-II protein, carrying an N-terminal hexahistidine tag, was produced in E.coli BL21(DE3)-RIL cells for 4 h at 37 °C. The bacterial cells were then harvested and disintegrated using One-Shot. […] (25.000× g, 30 min) centrifugation cleared cell lysate containing hKAT-II was loaded on the top of a HisTrap Fast Flow column (Cytiva) equilibrated in loading buffer (40 mM Tris, pH 8; 1000 mM NaCl, 40 µM PLP, 5 mM MgCl2, 20 mM imidazole). Following elution of the bound proteins by the loading buffer containing 600 mM imidazole, purified hKAT-II was dialyzed into a storage buffer (20 mM Hepes pH 7.5; 50 mM NaCl, 70 µM PLP, 10% glycerol), concentrated to 1.0–1.5 mg/mL, aliquoted, and stored at −80 °C.
hKAT-II activity was measured using a fluorescence assay utilizing L-α-aminoadipic acid (AAD) and α-ketoglutarate as the substrates as previously described. The assay medium (100 µL) consisted of 0.75 µM of hKAT-II, 0.3 mM of AAD, 50 µM α-ketoglutarate, 3 mM NAD^+, 88 µg/mL of glutamic dehydrogenase, and 5 µM pyridoxal phosphate (PLP) in a 0.1 M phosphate buffer pH 7.5. The activity of the enzyme was assessed on a Spark multiple mode reader (Tecan Group Ltd., Männedorf, Switzerland) with an excitation wavelength of 340 nm and emission wavelength of 390 nm at 37 °C. The plate was shaken for 20 s before reading. The kinetic interval was set at 30 s between each reading, and data were collected for 30 min. The activity of the enzyme was assayed in pentaplicate in each measurement (n = 3). Kinetic data were then collected over a period of 30 min, and the linear part of the initial velocity was used to calculate the enzyme activity expressed as the slope of the linearized curve via the linear regression function (Excel, Microsoft, USA).
The inhibitory activity of the tested compounds was determined via 30 min pre-incubation with the enzyme at various concentrations of the inhibitor at room temperature in a 0.1 M phosphate buffer pH 7.5 with 5 µM PLP. The enzyme reaction was initiated by the addition of a substrate and cofactors. The final mixture contained 20 nM of hKAT-II, 0.3 mM of AAD, 50 µM α-ketoglutarate, 3 mM NAD^+, and 88 µg/mL of glutamic dehydrogenase. Kinetic data were collected over a period of 30 min, and the slope of the linearized curve was calculated as above. The inhibitory activity in %I at a given concentration was calculated for novel compounds using the following equation:(1) Inhibition [%I]=(V0− Vi/V0)×100, where V0 and Vi are the activity of the enzyme in the absence and presence of the inhibitor, respectively. All the data were obtained in pentaplicate for each measurement (n = 3). Alternatively, the IC50 values for selected novel compounds were assessed. GraphPad Prism 8 software (San Diego, USA) was used for the IC50 value calculation using non-linear regression (four parameters). […]

Where [2] appears, read: non-linear regression (four parameters), read-out: IC50 ± SEM.

T1 sequence (Q8N5Z0 30-425): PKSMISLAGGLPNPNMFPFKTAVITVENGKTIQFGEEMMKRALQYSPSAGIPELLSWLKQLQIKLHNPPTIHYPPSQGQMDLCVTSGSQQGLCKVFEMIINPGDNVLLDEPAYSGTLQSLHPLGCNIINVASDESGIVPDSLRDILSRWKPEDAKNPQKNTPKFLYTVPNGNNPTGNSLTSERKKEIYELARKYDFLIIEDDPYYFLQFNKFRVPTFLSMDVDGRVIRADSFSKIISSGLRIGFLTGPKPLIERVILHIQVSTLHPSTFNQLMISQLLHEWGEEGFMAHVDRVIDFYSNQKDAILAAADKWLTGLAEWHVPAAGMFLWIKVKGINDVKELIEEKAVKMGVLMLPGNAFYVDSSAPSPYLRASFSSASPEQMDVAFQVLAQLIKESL

In the case of `C[C@H](N)C(=O)c1cn(-c2cccnc2)nn1` (as salt: hydrochloride) [Compound 26l], the melting point is 140 to 143 °C (dec.).
Turning to `N[C@H]1Cc2ccccc2N(O)C1=O` [Compound 3, PF-04859989, reference compound], the IC50 in data set [1] (assay validation, read-out: IC50 of the reference inhibitor) is 28 ± 5 nM.
Turning to `C[C@H](N)C(=O)c1ncc(-c2ccccc2)s1` [Compound 11, 2-alaninoyl-5-phenylthiazole], the melting point is > 168 °C (dec.). Further, in data set [1] (setting [2]), the IC50 turned out to be 1620 ± 1430 nM. In data set [1], the “Inhibitory Activity [%I ± SEM] c = 1 µM” value was 41.41 ± 4.15 %I.
Take `C[C@H](N)C(=O)c1cn(-c2ccccc2)nn1` [Compound 12, 4-alaninoyl-1-phenyl-1H-1,2,3-triazole]: the melting point is > 178 °C (dec.). Further, the concentration for half-maximal inhibition (IC50) in data set [1] (setting [2]) came to 3210 ± 260 nM. For the same molecule, the “Inhibitory Activity [%I ± SEM] c = 1 µM” value in data set [1] worked out at 43.19 ± 2.30 %I.
Take `CC(C)[C@H](N)C(=O)c1cn(-c2ccccc2)nn1.Cl` [Compound 21a]: the melting point was > 182 °C (dec.). In data set [1], the “Inhibitory Activity [%I ± SEM] c = 1 µM” value turned out to be 10.32 ± 4.81 %I.
For the molecule `N[C@@H](Cc1ccccc1)C(=O)c1cn(-c2ccccc2)nn1` [Compound 21b], the melting point is > 174 °C (dec.). For the same molecule, the “Inhibitory Activity [%I ± SEM] c = 1 µM” value in data set [1] is 14.52 ± 3.71 %I.
As for `Cl.N[C@@H](CCc1ccccc1)C(=O)c1cn(-c2ccccc2)nn1` [Compound 21c], the melting point is > 175 °C (dec.). Further, the “Inhibitory Activity [%I ± SEM] c = 1 µM” value in data set [1] stood at 16.50 ± 3.71 %I.
Take `CCCC[C@H](N)C(=O)c1cn(-c2ccccc2)nn1.Cl` [Compound 21d]: the melting point is > 173 °C (dec.). In data set [1], the “Inhibitory Activity [%I ± SEM] c = 1 µM” value is reported as 13.46 ± 5.46 %I.
`CC[C@H](N)C(=O)c1cn(-c2ccccc2)nn1.Cl` [Compound 21e]: the “Inhibitory Activity [%I ± SEM] c = 1 µM” value in data set [1] was 21.82 ± 4.80 %I.
As to `N[C@H](C(=O)c1cn(-c2ccccc2)nn1)C1CC1` [Compound 21f], the melting point was > 183 °C (dec.). The “Inhibitory Activity [%I ± SEM] c = 1 µM” value in data set [1] came to 7.44 ± 3.75 %I.
`CC(C)[C@H](N)C(=O)c1ncc(-c2ccccc2)s1` [Compound 25a]: the melting point is > 170 °C (dec.). Further, the “Inhibitory Activity [%I ± SEM] c = 1 µM” value in data set [1] is reported as 31.24 ± 3.64 %I.
As to `N[C@@H](Cc1ccccc1)C(=O)c1ncc(-c2ccccc2)s1` [Compound 25b], the melting point is > 175 °C (dec.). Also, in data set [1], the “Inhibitory Activity [%I ± SEM] c = 1 µM” value turned out to be 7.22 ± 2.70 %I.
`N[C@@H](CCc1ccccc1)C(=O)c1ncc(-c2ccccc2)s1` [Compound 25c]: the melting point is > 135 °C (dec.). Also, the “Inhibitory Activity [%I ± SEM] c = 1 µM” value in data set [1] was 31.32 ± 0.88 %I.
`CCCC[C@H](N)C(=O)c1ncc(-c2ccccc2)s1` [Compound 25d]: the melting point was in the range of 124 to 127 °C. For the same molecule, the “Inhibitory Activity [%I ± SEM] c = 1 µM” value in data set [1] was 37.22 ± 2.53 %I.
In the same order, the values of `CC[C@H](N)C(=O)c1ncc(-c2ccccc2)s1` [Compound 25e] are > 180 °C (dec.) and 44.18 ± 3.42 %I.
Take `N[C@H](C(=O)c1ncc(-c2ccccc2)s1)C1CC1` [Compound 25f]: the melting point is > 165 °C (dec.). Also, the “Inhibitory Activity [%I ± SEM] c = 1 µM” value in data set [1] was 6.12 ± 2.66 %I.
For `COc1ccc(-n2cc(C(=O)[C@H](C)N)nn2)cc1` [Compound 26a], the melting point was > 180 °C (dec.). Further, in data set [1], the “Inhibitory Activity [%I ± SEM] c = 1 µM” value came to 38.50 ± 2.21 %I.
The corresponding values for `COc1cccc(-n2cc(C(=O)[C@H](C)N)nn2)c1` [Compound 26b] are > 171 °C (dec.) and 18.20 ± 2.27 %I.
For `COc1ccccc1-n1cc(C(=O)[C@H](C)N)nn1` [Compound 26c], the melting point was > 168 °C (dec.). For the same molecule, the “Inhibitory Activity [%I ± SEM] c = 1 µM” value in data set [1] was found to be 23.41 ± 3.97 %I.
On to `C[C@H](N)C(=O)c1cn(-c2ccc(C(C)(C)C)cc2)nn1` [Compound 26d], for which the melting point is > 181 °C (dec.). Also, the “Inhibitory Activity [%I ± SEM] c = 1 µM” value in data set [1] is 0.98 ± 1.98 %I.
In the same order, the values of `Cc1ccc(-n2cc(C(=O)[C@H](C)N)nn2)cc1` [Compound 26e] are > 184 °C (dec.) and 18.56 ± 2.33 %I.
Take `Cc1ccc(-n2cc(C(=O)[C@H](C)N)nn2)cc1C` [Compound 26f]: the melting point is > 170 °C (dec.). The “Inhibitory Activity [%I ± SEM] c = 1 µM” value in data set [1] is recorded as 9.10 ± 2.07 %I.
In the same order, the values of `Cc1ccc(-n2cc(C(=O)[C@H](C)N)nn2)c(C)c1` [Compound 26g] are > 175 °C (dec.) and 41.60 ± 6.39 %I.
With `Cc1cccc(C)c1-n1cc(C(=O)[C@H](C)N)nn1` [Compound 26h], the melting point was > 176 °C (dec.). For the same molecule, the “Inhibitory Activity [%I ± SEM] c = 1 µM” value in data set [1] is given as 25.38 ± 2.22 %I.
On to `C[C@H](N)C(=O)c1cn(-c2cccc3ccccc23)nn1` [Compound 26i], for which the melting point is > 172 °C (dec.). Also, the “Inhibitory Activity [%I ± SEM] c = 1 µM” value in data set [1] is 4.32 ± 1.32 %I.
`C[C@H](N)C(=O)c1cn(-c2ccc3ccccc3c2)nn1` [Compound 26j]: the melting point is > 182 °C (dec.). In data set [1], the “Inhibitory Activity [%I ± SEM] c = 1 µM” value stood at 27.81 ± 3.33 %I.
`C[C@H](N)C(=O)c1cn(-c2ccccn2)nn1.Cl` [Compound 26k]: the melting point was > 198 °C (dec.). Further, in data set [1], the “Inhibitory Activity [%I ± SEM] c = 1 µM” value came to 20.73 ± 1.83 %I.
Turning to `C[C@H](N)C(=O)c1cn(-c2cccnc2)nn1` [Compound 26l], in data set [1], the “Inhibitory Activity [%I ± SEM] c = 1 µM” value is on record as 23.63 ± 2.30 %I.
For `C[C@H](N)C(=O)c1cn(-c2ccncc2)nn1.Cl.Cl` [Compound 26m], the melting point was > 183 °C (dec.). Moreover, in data set [1], the “Inhibitory Activity [%I ± SEM] c = 1 µM” value came out at 33.48 ± 4.88 %I.
On to `C[C@H](N)C(=O)c1cn(-c2ccc(F)cc2)nn1.Cl` [Compound 26n], for which the melting point was > 183 °C (dec.). Besides, the “Inhibitory Activity [%I ± SEM] c = 1 µM” value in data set [1] is on record as 41.77 ± 3.01 %I.
Regarding `C[C@H](N)C(=O)c1cn(-c2ccc(C(F)(F)F)cc2)nn1` [Compound 26o], in data set [1], the “Inhibitory Activity [%I ± SEM] c = 1 µM” value is recorded as 9.70 ± 1.67 %I.
In the case of `C[C@H](N)C(=O)c1cn(-c2cccc([N+](=O)[O-])c2)nn1.Cl` [Compound 26p], the melting point is > 183 °C (dec.). For the same molecule, the “Inhibitory Activity [%I ± SEM] c = 1 µM” value in data set [1] was 41.43 ± 2.67 %I.
Turning to `C[C@H](N)C(=O)c1cn(-c2ccc([N+](=O)[O-])cc2)nn1.Cl` [Compound 26q], the melting point is > 191 °C (dec.). In data set [1], the “Inhibitory Activity [%I ± SEM] c = 1 µM” value is 41.73 ± 2.66 %I.
In the same order, the values of `C[C@H](N)C(=O)c1cn(-c2ccc(Cl)cc2)nn1.Cl` [Compound 26r] are > 177 °C (dec.) and 23.86 ± 2.95 %I.
In the same order, the values of `C[C@H](N)C(=O)c1cn(-c2cccc(Cl)c2)nn1` [Compound 26s] are > 171 °C (dec.) and 20.63 ± 3.78 %I.
As to `C[C@H](N)C(=O)c1cn(-c2ccc(F)c(Cl)c2)nn1` [Compound 26v], in data set [1], the “Inhibitory Activity [%I ± SEM] c = 1 µM” value is 23.62 ± 4.30 %I.
For `C[C@H](N)C(=O)c1ncc(-c2ccc(F)cc2)s1` [Compound 49a, 2-alaninoyl-5-(4-fluorophenyl)thiazole], the half-maximal inhibitory concentration (IC50) in data set [1] (setting [2]) is 97 ± 14 nM. Also, the “Inhibitory Activity [%I ± SEM] c = 1 µM” value in data set [1] is on record as 61.54 ± 7.16 %I.

As usually defined, the melting point is the temperature of the solid-liquid transition. A word on the IC50: it is the concentration that inhibits the measured activity by half.
